Data as given in EP1582213A1, “Use of adenosine for treating surgery related ischemia” (Ludwig-Maximilians-Universität München, priority 2004, dated 2005).

Key:
Format in all cases: in vivo, human
[1] = Determination of bilirubin in blood samples of patients after partial liver resection
Experimental: (§1) Adenosine group: The members of this group were experiencing liver trauma during resection and additional organ ischemia during resection (Pringle-manoeuvre, duration 30 to 45 minutes). Liver protection was realised by intermitting central venous administration of adenosine (infusion duration 10 minutes, 120 to 150 µg/kg body weight/min) 20 minutes prior to resection/ischemia, and a new continuous infusion immediately after reperfusion (infusion duration 70 to 90 minutes, 120 to 150 µg/kg body weight/min).
(§2) The following tests were carried out in order to assess the post-operational organ functions: • 1. Quick test • 2. Determination of the bilirubin • 3. Lactate for monitoring the energetic situation
Any of the results obtained by applying these tests on blood samples taken from the members of the various study groups, are depicted in table 1: Table 1: […]

[2] = system: beta 2 adhesion molecules on circulating granulocytes; test: Granulocyte function: expression of beta 2-integrins on circulating granulocytes, FACScan with FITC marked anti-CD18 antibody (Fig. 3); details: observed immediately after ischemia and reperfusion; adenosine administered prior and after ischemia; vs. control groups 1 and 2
Experimental: as §1
(§3) To assess protection conferred by adenosine on the anti-inflammation branch, both interleukin 6 and granulocyte functions were determined, whereby the results are presented in Figs. 2 and 3.
The further parameter for anti-inflammation, i. e. granulocyte function, was measured as the inhibition of potential cytotoxic functions of white blood cells due to liver ischemia which was measured using the expression of beta 2-intergrins through the monoclonal anti-CD18 antibody. More particularly, the expression was determined prior to ischemia and 3, 30 and 120 minutes after reperfusion. The cells were analysed using a FACScan and a FITC marked anti-CD18 antibody. […] As indicated in Fig. 3 $ p < 0.05 vs. control group 1, # p < 0.05 vs. control group 2.

interleukin 6 = test: Interleukin 6 titre in blood of patients before and after liver resection (Fig. 2); details: post-procedure increase, first and second day after resection; adenosine group vs. control groups; three to five patients per group
Experimental: as §1, §3
As depicted in Fig. 2, the level of interleukin 6 increased in any of the four groups, whereby each group consisted of three to five patients. Such increase is typically observed as a post-procedure reaction. The serum titres of the pro-inflammatory cytokine interleukin 6 can increase by three magnitudes compared to the pre-procedure titre and were highest in control group 2, where both surgical liver trauma and ischemia/reperfusion were combined.

[3] = Quick test (prothrombin time) on blood samples of patients after partial liver resection
Experimental: as §1, §2
(§4) Any of the results obtained by applying these tests on blood samples taken from the members of the various study groups, are depicted in table 1: Table 1:
The quick test serves as a parameter for the assessment of the protein synthesis performance of the liver after the procedure.

[4] = Lactate in serum for monitoring the energetic situation after partial liver resection
Experimental: as §1, §2, §4
Also using lactate as a parameter for cytoprotective effects confirms the significant effectiveness of adenosine administration. The lactate concentration in serum is regarded as a marker for the extent of anaerobic metabolism due to lack of oxygen caused by a cellular lack of energy. The lactate concentrations in the serum are highest post-procedure in group 2, where surgical liver trauma and ischemia/reperfusion was combined.

[5] = first postoperative day, adenosine 120 to 150 µg/kg body weight/min prior to resection/ischemia and after reperfusion, mean
[6] = second postoperative day, same regimen, mean

With `Nc1ncnc2c1ncn2[C@@H]1O[C@H](CO)[C@@H](O)[C@H]1O` [Adenosine, adenosine] the bilirubin concentration ([1]; adenosine group, post-procedure vs. pre-procedure values) was “remained unchanged compared to pre- procedure values”, the bili-1 [1, 5] was “#0,6 mg/dI” and the bili pre ([1]; preoperative baseline, bilirubin, mean of adenosine group, norm <1,0) was 0,4 mg/dI. The bili-2 [1, 6] was “#0,5 mg/dI”, the “activation of granulocytes circulating in the blood” value [2] was “effectively avoided” and the “IL 6 titre” value (interleukin 6) was “significantly less pronounced”. The “value of the quick test on the first and second day after surgery (liver synthesis performance)” value ([3]; adenosine group compared with the control groups) was “higher in the adenosine group”, the “PT(Quick)1” value ([3]; first postoperative day, partial liver resection with Pringle-manoeuvre 30 to 45 minutes, adenosine central venous 120 to 150 µg/kg body weight/min, 10 minutes given 20 minutes prior to resection/ischemia and 70 to 90 minutes after reperfusion, mean) was “#*66%” and the “PT(Quick)pre” value ([3]; preoperative baseline, Prothrombin Time expressed as Quick-values, mean of adenosine group, norm 70-100 %) was 100%. For the same compound, the “PT(Quick)2” value [3, 6] was 72%, the Lactate-1 [4, 5] was 1,8 mmo I/I and the “initial increase in the lactate on the first post-procedure day” value ([4]; intravenous systemic administration of adenosine prior and after resection and ischemia, compared with control group 2) was “less pronounced”. The Lactat pre ([4]; preoperative baseline, lactate-concentration, mean of adenosine group, norm <2) was <1,0 mmo I/I and the Lactate-2 [4, 6] was 1,2 mmo I/I.
